Measured values reported in patent US12209081B2 (Katholieke Universiteit Leuven, priority 2020, dated 2025).

molecular target: mouse TRPM3α2 (mTRPM3) ion channel (Mus musculus (Mouse), UniProt J9SQF3); test: TRPM3 ion channel driven Ca2+ uptake, Fluo-4 AM assay, mTRPM3alpha2 overexpressing flip-in HEK293 cells stimulated with pregnenolone sulfate; assay type: cell-based; details: PS 50 μM, cpds 300-399
Procedure, shortened: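 Read-out is Ca2+ influx via Fluo-4 AM fluorescence at 485/535 nm, taken right after seeding ~2000 cells/well onto compound with 50 μM PS. Inhibition computed from RFU between vehicle-stimulated and positive-control-inhibitor wells; cells were mTRPM3α2-overexpressing flip-in HEK293.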

mouse TRPM3α2 (mTRPM3) ion channel, sequence (J9SQF3 other isoform, or with tags, fused parts or gaps): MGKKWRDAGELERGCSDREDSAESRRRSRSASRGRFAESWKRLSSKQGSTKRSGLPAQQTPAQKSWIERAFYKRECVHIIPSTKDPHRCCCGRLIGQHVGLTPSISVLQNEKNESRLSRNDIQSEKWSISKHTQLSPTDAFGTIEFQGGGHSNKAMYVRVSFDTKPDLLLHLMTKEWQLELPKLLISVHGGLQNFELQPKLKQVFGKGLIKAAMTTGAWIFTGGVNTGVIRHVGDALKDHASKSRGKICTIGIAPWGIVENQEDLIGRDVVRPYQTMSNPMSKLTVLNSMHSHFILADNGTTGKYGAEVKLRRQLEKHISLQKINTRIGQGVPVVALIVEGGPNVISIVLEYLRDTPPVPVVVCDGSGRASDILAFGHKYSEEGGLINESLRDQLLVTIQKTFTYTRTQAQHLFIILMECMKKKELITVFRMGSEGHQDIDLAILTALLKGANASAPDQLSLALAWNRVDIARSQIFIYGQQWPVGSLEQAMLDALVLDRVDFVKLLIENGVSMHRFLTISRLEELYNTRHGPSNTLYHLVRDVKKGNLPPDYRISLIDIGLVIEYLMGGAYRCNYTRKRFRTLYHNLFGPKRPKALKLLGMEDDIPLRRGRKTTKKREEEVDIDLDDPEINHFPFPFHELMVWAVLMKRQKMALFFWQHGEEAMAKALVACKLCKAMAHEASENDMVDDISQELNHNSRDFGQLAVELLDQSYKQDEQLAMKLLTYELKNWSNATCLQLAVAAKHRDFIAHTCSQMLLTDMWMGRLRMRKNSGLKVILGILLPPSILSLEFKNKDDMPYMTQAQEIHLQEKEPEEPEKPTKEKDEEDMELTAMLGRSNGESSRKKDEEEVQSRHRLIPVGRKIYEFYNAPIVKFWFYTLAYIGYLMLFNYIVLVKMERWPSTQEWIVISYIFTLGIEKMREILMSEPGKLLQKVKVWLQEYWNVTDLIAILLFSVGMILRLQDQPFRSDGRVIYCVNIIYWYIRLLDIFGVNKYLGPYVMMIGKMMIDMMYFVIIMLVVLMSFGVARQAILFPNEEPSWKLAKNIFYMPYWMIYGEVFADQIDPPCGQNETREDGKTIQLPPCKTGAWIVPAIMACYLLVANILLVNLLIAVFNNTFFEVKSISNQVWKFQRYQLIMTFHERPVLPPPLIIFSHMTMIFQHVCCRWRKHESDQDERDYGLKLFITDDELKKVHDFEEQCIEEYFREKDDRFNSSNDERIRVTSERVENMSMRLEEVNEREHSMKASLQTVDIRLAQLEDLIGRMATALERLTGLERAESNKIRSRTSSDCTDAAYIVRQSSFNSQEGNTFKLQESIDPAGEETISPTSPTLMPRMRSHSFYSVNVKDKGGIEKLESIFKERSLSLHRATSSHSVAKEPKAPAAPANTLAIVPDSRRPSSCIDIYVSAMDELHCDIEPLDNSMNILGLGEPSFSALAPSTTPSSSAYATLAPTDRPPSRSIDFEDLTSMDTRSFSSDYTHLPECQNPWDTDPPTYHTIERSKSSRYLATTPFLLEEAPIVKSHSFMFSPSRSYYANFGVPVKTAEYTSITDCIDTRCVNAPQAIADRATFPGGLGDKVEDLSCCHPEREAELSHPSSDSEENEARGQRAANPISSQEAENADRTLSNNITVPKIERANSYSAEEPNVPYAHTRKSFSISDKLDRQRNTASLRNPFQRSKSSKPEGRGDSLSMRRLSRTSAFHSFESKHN

| IC50 [µM] | Structure (SMILES) |
| --- | --- |
| < 1 | Cc1oc2cc(F)c(OCc3cccnc3O)cc2c1C(=O)NC1(CO)CCOCC1 [compound 363, 6-fluoro-N-(4-(hydroxymethyl)tetrahydro-2H-pyran-4-yl)-2-methyl-5-((2-oxo-1,2-dihydropyridin-3-yl)methoxy)benzofuran-3-carboxamide] |
| < 1 | COc1ncccc1COc1cc2c(C(=O)NC3(CO)CCOCC3)c(C)oc2cc1F [compound 364, 6-fluoro-N-(4-(hydroxymethyl)tetrahydro-2H-pyran-4-yl)-5-((2-methoxypyridin-3-yl)methoxy)-2-methylbenzofuran-3-carboxamide] |
| < 1 | Cc1ncsc1COc1cc(F)c2oc(C)c(C(=O)NC3(CO)COC3)c2c1 [compound 367, 7-fluoro-N-(3-(hydroxymethyl)oxetan-3-yl)-2-methyl-5-((4-methylthiazol-5-yl)methoxy)benzofuran-3-carboxamide] |
| < 1 | Cc1ncc(COc2ccc3oc(C)c(C(=O)NCC4(C#N)CC4)c3c2)s1 [compound 370, N-((1-cyanocyclopropyl)methyl)-2-methyl-5-((2-methylthiazol-5-yl)methoxy)benzofuran-3-carboxamide] |
| < 1 | Cc1ncsc1COc1ccc2oc(C)c(C(=O)NCC3(C#N)CC3)c2c1 [compound 371, N-((1-cyanocyclopropyl)methyl)-2-methyl-5-((4-methylthiazol-5-yl)methoxy)benzofuran-3-carboxamide] |
| < 1 | Cc1ncc(COc2ccc3oc(C)c(C(=O)NCC4(F)CC4)c3c2)s1 [compound 372, N-((1-fluorocyclopropyl)methyl)-2-methyl-5-((2-methylthiazol-5-yl)methoxy)benzofuran-3-carboxamide] |
| < 1 | Cc1ncsc1COc1ccc2oc(C)c(C(=O)NCC3(F)CC3)c2c1 [compound 373, N-((1-fluorocyclopropyl)methyl)-2-methyl-5-((4-methylthiazol-5-yl)methoxy)benzofuran-3-carboxamide] |
| < 1 | Cc1ncsc1COc1ccc2oc(C)c(C(=O)NCc3cc[nH]n3)c2c1 [compound 374, N-((1H-pyrazol-3-yl)methyl)-2-methyl-5-((4-methylthiazol-5-yl)methoxy)benzofuran-3-carboxamide] |
| < 1 | Cc1ncc(COc2ccc3oc(C)c(C(=O)N[C@H](C(N)=O)[C@@H](C)O)c3c2)o1 [compound 375, N-((2S,3R)-1-amino-3-hydroxy-1-oxobutan-2-yl)-2-methyl-5-((2-methyloxazol-5-yl)methoxy)benzofuran-3-carboxamide] |
| < 1 | Cc1ncccc1COc1ccc2oc(C)c(C(=O)N[C@H](C(N)=O)[C@@H](C)O)c2c1 [compound 376, N-((2S,3R)-1-amino-3-hydroxy-1-oxobutan-2-yl)-2-methyl-5-((2-methylpyridin-3-yl)methoxy)benzofuran-3-carboxamide] |
| < 1 | Cc1ncc(COc2ccc3oc(C)c(C(=O)N[C@H](C(N)=O)[C@@H](C)O)c3c2)s1 [compound 377, N-((2S,3R)-1-amino-3-hydroxy-1-oxobutan-2-yl)-2-methyl-5-((2-methylthiazol-5-yl)methoxy)benzofuran-3-carboxamide] |
| < 1 | Cc1ncsc1COc1ccc2oc(C)c(C(=O)N[C@H](C(N)=O)[C@@H](C)O)c2c1 [compound 378, N-((2S,3R)-1-amino-3-hydroxy-1-oxobutan-2-yl)-2-methyl-5-((4-methylthiazol-5-yl)methoxy)benzofuran-3-carboxamide] |
| < 1 | Cc1ccc(COc2ccc3oc(C)c(C(=O)N[C@H](C(N)=O)[C@@H](C)O)c3c2)cn1 [compound 380, N-((2S,3R)-1-amino-3-hydroxy-1-oxobutan-2-yl)-2-methyl-5-((6-methylpyridin-3-yl)methoxy)benzofuran-3-carboxamide] |
| < 1 | Cc1nc(C)c(COc2ccc3oc(C)c(C(=O)N[C@H](C(N)=O)[C@@H](C)O)c3c2)s1 [compound 382, N-((2S,3R)-1-amino-3-hydroxy-1-oxobutan-2-yl)-5-((2,4-dimethylthiazol-5-yl)methoxy)-2-methylbenzofuran-3-carboxamide] |
| < 1 | Cc1oc2ccc(OCc3c(F)cnn3C)cc2c1C(=O)N[C@H](C(N)=O)[C@@H](C)O [compound 383, N-((2S,3R)-1-amino-3-hydroxy-1-oxobutan-2-yl)-5-((4-fluoro-1-methyl-1H-pyrazol-5-yl)methoxy)-2-methylbenzofuran-3-carboxamide] |
| < 1 | Cc1ncc(COc2ccc3oc(C)c(C(=O)NCC4(F)COC4)c3c2)s1 [compound 384, N-((3-fluorooxetan-3-yl)methyl)-2-methyl-5-((2-methylthiazol-5-yl)methoxy)benzofuran-3-carboxamide] |
| < 1 | Cc1ncsc1COc1ccc2oc(C)c(C(=O)NCC3(F)COC3)c2c1 [compound 385, N-((3-fluorooxetan-3-yl)methyl)-2-methyl-5-((4-methylthiazol-5-yl)methoxy)benzofuran-3-carboxamide] |
| < 1 | Cc1oc2ccc(OCc3cccnc3C(F)(F)F)cc2c1C(=O)N[C@@H]1C(=O)NC[C@H]1O [compound 390, N-((3S,4R)-4-hydroxy-2-oxopyrrolidin-3-yl)-2-methyl-5-((2-(trifluoromethyl)pyridin-3-yl)methoxy)benzofuran-3-carboxamide] |
| < 1 | Cc1ncc(COc2ccc3oc(C)c(C(=O)N[C@@H]4C(=O)NC[C@H]4O)c3c2)s1 [compound 391, N-((3S,4R)-4-hydroxy-2-oxopyrrolidin-3-yl)-2-methyl-5-((2-methylthiazol-5-yl)methoxy)benzofuran-3-carboxamide] |
| < 1 | Cc1ncsc1COc1ccc2oc(C)c(C(=O)N[C@@H]3C(=O)NC[C@H]3O)c2c1 [compound 392, N-((3S,4R)-4-hydroxy-2-oxopyrrolidin-3-yl)-2-methyl-5-((4-methylthiazol-5-yl)methoxy)benzofuran-3-carboxamide] |
| < 1 | Cc1ncc(COc2ccc3oc(C)c(C(=O)NCC4(F)CCOCC4)c3c2)s1 [compound 393, N-((4-fluorotetrahydro-2H-pyran-4-yl)methyl)-2-methyl-5-((2-methylthiazol-5-yl)methoxy)benzofuran-3-carboxamide] |
| < 1 | Cc1ncsc1COc1ccc2oc(C)c(C(=O)NCC3(F)CCOCC3)c2c1 [compound 394, N-((4-fluorotetrahydro-2H-pyran-4-yl)methyl)-2-methyl-5-((4-methylthiazol-5-yl)methoxy)benzofuran-3-carboxamide] |
| < 1 | Cc1ncsc1COc1ccc2oc(C)c(C(=O)NC(C)(C)C(=O)NCCO)c2c1 [compound 398, N-(1-((2-hydroxyethyl)amino)-2-methyl-1-oxopropan-2-yl)-2-methyl-5-((4-methylthiazol-5-yl)methoxy)benzofuran-3-carboxamide] |
| < 1 | Cc1ncc(COc2ccc3oc(C)c(C(=O)NC4(COC(F)F)CC4)c3c2)s1 [compound 399, N-(1-((difluoromethoxy)methyl)cyclopropyl)-2-methyl-5-((2-methylthiazol-5-yl)methoxy)benzofuran-3-carboxamide] |

same assay, conditions: PS (50 μM) stimulated, cpds. 400-499

| IC50 [µM] | Structure (SMILES) |
| --- | --- |
| < 1 | Cc1ncsc1COc1ccc2oc(C)c(C(=O)NC3(COC(F)F)CC3)c2c1 [compound 400, N-(1-((difluoromethoxy)methyl)cyclopropyl)-2-methyl-5-((4-methylthiazol-5-yl)methoxy)benzofuran-3-carboxamide] |
